# Experimental data as given in patent US20190369111A1, “MOLECULAR KINETICS EVALUATION METHOD AND SCREENING METHOD” (Tokyo University of Science Foundation, priority 2016, published 2019).
# Target: T1, SOS1 protein (Homo sapiens, UniProt Q07889)
# T1 construct: endogenous in cells; host or cells: HeLa cells
# T1 sequence (Q07889 1-1333): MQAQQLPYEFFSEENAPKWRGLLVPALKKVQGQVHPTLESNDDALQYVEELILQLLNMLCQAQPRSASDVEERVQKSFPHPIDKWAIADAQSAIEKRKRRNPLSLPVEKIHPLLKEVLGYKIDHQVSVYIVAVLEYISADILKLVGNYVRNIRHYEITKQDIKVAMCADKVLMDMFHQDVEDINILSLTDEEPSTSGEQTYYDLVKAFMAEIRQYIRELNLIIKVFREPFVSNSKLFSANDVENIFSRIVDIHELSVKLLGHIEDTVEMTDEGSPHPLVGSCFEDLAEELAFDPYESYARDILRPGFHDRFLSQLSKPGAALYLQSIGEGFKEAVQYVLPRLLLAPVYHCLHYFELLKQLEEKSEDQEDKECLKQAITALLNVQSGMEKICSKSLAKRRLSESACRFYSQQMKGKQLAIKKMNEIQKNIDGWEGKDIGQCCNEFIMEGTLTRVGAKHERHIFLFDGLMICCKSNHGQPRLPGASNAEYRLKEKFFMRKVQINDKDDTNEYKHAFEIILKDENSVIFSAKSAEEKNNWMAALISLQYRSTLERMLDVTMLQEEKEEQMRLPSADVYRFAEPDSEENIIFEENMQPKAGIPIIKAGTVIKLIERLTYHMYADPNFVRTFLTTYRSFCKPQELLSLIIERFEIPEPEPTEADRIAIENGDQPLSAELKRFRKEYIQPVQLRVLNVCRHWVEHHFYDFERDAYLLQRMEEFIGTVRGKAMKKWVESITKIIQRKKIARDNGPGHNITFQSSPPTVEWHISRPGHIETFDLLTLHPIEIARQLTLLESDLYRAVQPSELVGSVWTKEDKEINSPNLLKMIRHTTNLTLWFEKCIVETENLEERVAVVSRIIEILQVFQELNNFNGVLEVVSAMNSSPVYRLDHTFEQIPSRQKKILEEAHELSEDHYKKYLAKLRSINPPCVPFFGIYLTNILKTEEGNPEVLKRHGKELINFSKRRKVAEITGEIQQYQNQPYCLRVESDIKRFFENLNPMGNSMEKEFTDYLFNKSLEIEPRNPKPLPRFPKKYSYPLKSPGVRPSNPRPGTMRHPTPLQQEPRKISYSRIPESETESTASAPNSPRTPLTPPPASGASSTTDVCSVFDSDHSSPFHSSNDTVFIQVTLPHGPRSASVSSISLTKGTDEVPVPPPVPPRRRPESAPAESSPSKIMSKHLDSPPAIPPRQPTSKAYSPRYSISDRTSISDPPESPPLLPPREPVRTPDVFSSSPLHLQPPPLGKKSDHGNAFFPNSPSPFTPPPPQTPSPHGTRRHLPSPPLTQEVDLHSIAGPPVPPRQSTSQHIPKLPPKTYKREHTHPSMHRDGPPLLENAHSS
# Test: Amount of SOS1 protein in HeLa cells, Western blot analysis
# Assay type: cell-based
# Conditions: 48 hours after addition
# Protocol: HeLa cells were seeded in a 24-well plate at a cell density of 8×10^4 cells/well, and then cultured under conditions of 37° C. and 5 vol % CO2 for 16 hours.
# After 16 hours from cell seeding, TUS-007 was added to HeLa cells as follows. As a medium, a serum-free medium (37° C.) in which 1 mass % L-glutamine solution (Sigma-Aldrich) was added to D-MEM (high D-glucose, phenol red, sodium pyruvate (Wako Pure Chemical Industries, Ltd.)) was used. It is noted that the L-glutamine solution was added immediately before use. A DMSO solution containing TUS-007 was mixed with the medium so that the concentration of DMSO was 1 vol %, and added to each well at 500 μL/well, and cultured under conditions of 37° C. and 5 vol % CO2. As a control, DMSO was used.
# The medium was removed 48 hours after addition of TUS-007, and then PBS was added to wash the cells. […]
# After electrophoresis, proteins were transferred to a PVDF membrane (Immobion™-P, Millipore) under conditions of 100 V and 2 hours using a tank-type blotting device and a transfer buffer (25 mM Tris-HCl, 195 mM glycine, 0.01% SDS, 15% methanol). […] Subsequently, the membrane was treated with a chemiluminescence reagent Immobilon™ Western (Millipore), and then chemiluminescence was detected using a lumino image analyzer LAS-3000 (FUJIFILM Corporation). […]
smiles,measurement,value
CC[C@@H](C)[C@H](NC(=O)CCCCCCNC(=O)[C@H](CC(C)C)NC(=O)CNC(=O)c1cc(Cl)ccc1Cl)C(=O)Nc1ccc2[nH]c(Cc3c[nH]c4ccccc34)nc2c1 [TUS-007],amount of SOS1 protein,not reduced
